# What was measured:
# [1] = test system: C57B16 mouse hearts subjected to IR injury; experiment: Ex vivo Langendorff ischemia-reperfusion, infarct size (Example 2, naive or pretreated MSC); set-up: species or system mouse (C57BL/6J); settings: MSC 2,500 cells/mL (3.10^5 MSC) pretreated 24 h with GW0742 1 μM; mean±SD
# [2] = test system: infarcted myocardial tissue; experiment: MSC grafted in infarcted myocardial tissue, fluorescence of Dil-labeled MSC in LV sections; set-up: species or system mouse (C57BL/6J); settings: Dil-labeled MSC pretreated 1 μM vs naive MSC
# Experimental: MSCs were pre-incubated for 24 hours with either PPARβ/δ antagonists GSK3787 (0.1 and 1 μM), PPARβ/δ inverse agonist GSK0660 (0.1 and 1 μM) or PPARβ/δ agonist GW0742 (0.1, 1 and 5 μM) before to be washed with PBS and used in co-cultures experiments or injected in the myocardium. When indicated, MSCs were labeled with the fluorescent cell-tracer CM-Dil (Molecular Probes). MSC were collected and suspended in 5 mL PBS containing CM-Dil (10^7 cells/10 μg) prior to be incubated at 37° C. for 5 minutes followed by 15 minutes at 4° C., in the dark. Labeled MSCs were washed 2 times in PBS, resuspended in PBS and maintained at 4° C. prior to be injected in the myocardium.
# At the end of ex vivo experiments, left ventricles (LV) were fixated in formol and embedded in paraffin. Each left ventricle was cut from the apex through the base (4 μm sections each 150 μm). Paraffin-embedded sections were deparaffinised then rehydrated through an alcohol gradient. Sections were mounted in Mowiol (Biovalley). LV Sections were scanned by the Zeiss Axio Scan Z1 slide scanner (Zeiss, Oberkochen, Germany). Scanning was done with the ×20 objective. Images were analyzed using ImageJ.
# [3] = test system: isolated perfused hearts from C57B16 mice; experiment: Ex vivo Langendorff ischemia-reperfusion, infarct size, effect of preconditioning duration (Example 3); set-up: species or system mouse (C57BL/6); settings: MSC preconditioned 24 h with 1 μM, 5,000 cells/ml, vs IR
# [4] = test system: TXNIP (Thioredoxin interacting protein); settings: neuronal stress; neonatal hypoxic-ischemic injury in rats; cited from earlier work
compound,measurement,setting,value
Cc1cc(SCc2sc(-c3ccc(C(F)(F)F)c(F)c3)nc2C)ccc1OCC(=O)O [GW0742],Infarct size,[1],same cardioprotective effect
same,Percentage of fluorescence (MSC grafted in infarcted myocardium) increased by,[2],3.5 times
same,Decrease in infarct size,[3],54.6%
same,TXNIP inhibition,[4],inhibits TXNIP
